From publication PMC6985109, “Cellular apoptosis and necrosis as therapeutic targets for novel Eugenol Tosylate Congeners against Candida albicans” (Scientific Reports, 2020)

Test system: C. albicans 4175, C. albicans 5112 and C. albicans SC5314
Experiment: FITC annexin V/PI staining flow cytometry, ranges over three strains
Format: cell-based, Candida albicans
Conditions: range over 0.5 × MIC, 1 × MIC, 2 × MIC and three strains
Description: To study the effect of test compounds on apoptotic markers protoplasts were prepared as described previously, with modifications. Briefly, mid-exponential phase cells were harvested and exposed to various concentrations of test compounds (0.5 × MIC, 1 × MIC and 2×MIC) for 3 h. The cells were then washed twice with protoplast buffer- I (1 M sorbitol, 50 mM tris base, 10 mM MgCl2 and 30 mM DTT) and incubated in the same buffer for 15 minutes at 25 °C, followed by centrifugation at 1500 rpm for 5 minutes. Supernatant was removed and cells were incubated with buffer- II (1 M sorbitol, 50 mM tris base, 10 mM MgCl2 and 1 mM DTT) supplemented with lyticase enzyme (≥1 µg/mL) used to digest the cell wall for 1 h at 25 °C. Buffer- II were removed by centrifugation and then cells were incubated with buffer- III (1 M sorbitol, 50 mM tris base and 10 mM MgCl2) for 20 minutes at room temperature. After the incubation cells were again centrifuged at 1500 rpm for 5 minutes and supernatant was discarded. Protoplasts then finally washed once with PBS and re-suspended in the same for further use. In each washing steps the volume of these protoplast buffers were 5 times to cell volume with pH 7.4.
This assay was used to identify early apoptosis by detecting movement of phosphatidylserine (PS) from the inner to the outer leaflet of plasma membrane. FITC annexin V Apoptosis Detection Kit I (BD Biosciences, CA, USA) was used according to the manufacturer’s instructions. Protoplasts of C. albicans cells treated with different concentrations of the test compounds, as mentioned in above section, were resuspended in 1X annexin V binding buffer ([…]) at a concentration of 1 × 10^6 cells per ml. To the 100 µl of this solution, 5 µl each of FITC annexin V and propidium iodide (PI) was added. Tubes were gently vortexed and incubated for 15 minutes at 25 °C in the dark. After incubation, 400 µl of 1X annexin V binding buffer was added to each tube and analyzed using the BD LSRFortessa Flow cytometer (Becton Dickinson, NJ, USA). The cell populations in four different quadrants of a quadrant dot plot were analyzed and interpreted as; Q1: necrosis (annexin V^−/PI^+), Q2: late apoptosis (annexin V^+/PI^+), Q3: early apoptosis (annexin V^+/PI^−) and Q4: viable cells (annexin V^−/PI^−), by using software FlowJo_V10.

C=CCc1ccc(OS(=O)(=O)c2ccc(C(=O)O)cc2)c(OC)c1 [ETC-7, 4-{[2-methoxy-4-(prop-2-en-1-yl)phenoxy]sulfonyl}benzoic acid]
early apoptosis: 8–32% | late apoptosis: 2–26% | necrosis: 1–31%
